Experimental data from patent publication US10914725B2, “Culture medium additive, culture medium composition, and method for culturing cells or tissue using same” (NISSAN CHEMICAL INDUSTRIES, LTD., priority 2015, dated 2021).

How the values were obtained:
[1] = test system: adenocarcinomic human alveolar basal epithelial cell line A549; experiment: High content analysis of anticancer agents by cell image analysis (Experimental Example 8); format: cell-based; details: for IC50: Homo sapiens; for average cell number per sphere / average dead cell number in sphere / average sphere number per 20 mm^2 / projected area: 0.03 (w/v)% low-molecular agar medium, 7 days with agent;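 as to projected area: Projected area in square micrometres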
Description: Adenocarcinomic human alveolar basal epithelial cell line A549 (manufactured by DS PHARMA BIOMEDICAL CO., LTD.) was suspended in the above-mentioned medium composition containing low-molecular agar at 11,000 cells/mL. […] The plate was stood in a CO2 incubator (37° C., 5% CO2) overnight. The next day, paclitaxel (manufactured by Wako Pure Chemical Industries, Ltd.) and trametinib (manufactured by SANTA CRUZ) were further added by 10 μl per 1 well at a final concentration of 0.001 μM, 0.01 μM and 0.1 μM, respectively, mitomycin C (manufactured by Wako Pure Chemical Industries, Ltd.) at a final concentration of 0.005 μM, 0.05 μM and 0.5 μM, and MK2206 (manufactured by SANTA CRUZ) at a final concentration of 0.001 μM, 0.01 μM, 0.1 μM and 1 μM. Successively, the plate was further cultured in a standing state in a CO2 incubator (37° C., 5% CO2) for 7 days.
Successively, a solution of 20 μg/mL Propidium Iodide (manufactured by BIOMOL) in DMEM (phenol red, L-glutamine free) (manufactured by Wako Pure Chemical Industries, Ltd.) was prepared and added at 10 μL per 1 well, and the culture medium was suspended. The plate was centrifuged at 1,500 rpm for 1 min, and high content analysis was performed by cell image analysis using a cell imaging apparatus (“ArrayScan VTI HCS Reader”, manufactured by Thermo Fisher Scientific). At that time, observation was performed with 20 fields of view per well using a ×10 objective lens, cell outline and cell nucleus were detected from Hoechst33342 fluorescence image, and dead cells were detected from propidium iodide fluorescence image. In addition, 50% inhibitory concentration (nM) of each anticancer agent by high content analysis was calculated from the number of spheres constituted of not less than 5 cells. In this case, the value without addition of the anticancer agent was taken as 0% sphere formation inhibitory rate.

[2] = test system: adenocarcinomic human alveolar basal epithelial cell line A549; experiment: CellTiter-Glo cell survival assay of anticancer agents (Experimental Example 8); format: cell-based; details: for IC50: Homo sapiens, A549, cell survival assay by luminescence, read-out: 50% inhibitory concentration
Description: Adenocarcinomic human alveolar basal epithelial cell line A549 (manufactured by DS PHARMA BIOMEDICAL CO., LTD.) was suspended in the above-mentioned medium composition containing low-molecular agar at 11,000 cells/mL. The above-mentioned cell suspension was dispensed to the wells of a 96 well flat bottom ultra-low attachment surface microplate (manufactured by Corning Incorporated, #3474) at 90 μL per 1 well. The plate was stood in a CO2 incubator (37° C., 5% CO2) overnight. […] Successively, the plate was further cultured in a standing state in a CO2 incubator (37° C., 5% CO2) for 7 days. As a negative control, a medium composition containing 10 (v/v) % FBS alone in DMEM (manufactured by Wako Pure Chemical Industries, Ltd.) was prepared. […] A549 cells were also suspended in each of the negative control and comparison control medium compositions, the negative control was dispensed to a 96 well flat bottom attachment surface microplate (manufactured by Corning Incorporated, #3585) and the comparison control was dispensed to a 96 well flat bottom ultra-low attachment surface microplate (manufactured by Corning Incorporated, #3474). […] CellTiter-Glo Luminescent Cell Viability Assay (manufactured by Promega) (100 μL) was added to the low-molecular agar-containing culture medium and each cell culture medium of the negative control and comparison control, the mixture was stood for 10 min at room temperature, and the amount of luminescence was measured by a microplate reader (“FlexStation 3”, manufactured by Molecular Devices) and according to the protocol recommended by Promega. The amount of luminescence of the medium alone was subtracted, whereby the number of viable cells was measured.

[3] = A549, high content analysis by cell image analysis, number of spheres of not less than 5 cells, low-molecular agar-containing medium, read-out: 50% inhibitory concentration
[4] = comparison control (0.015 (w/v)% deacylated gellan gum medium)
[5] = low-molecular agar-containing medium
[6] = negative control (DMEM, 10% FBS, attachment surface plate)
[7] = agent 0.001 μM, comparison control (0.015 (w/v)% deacylated gellan gum medium)
[8] = agent 0.001 μM, low-molecular agar-containing medium
[9] = agent 0.001 μM, negative control (DMEM, 10% FBS, attachment surface plate)
[10] = agent 0.01 μM, comparison control (0.015 (w/v)% deacylated gellan gum medium)
[11] = agent 0.01 μM, low-molecular agar-containing medium
[12] = agent 0.01 μM, negative control (DMEM, 10% FBS, attachment surface plate)
[13] = agent 0.1 μM, comparison control (0.015 (w/v)% deacylated gellan gum medium)
[14] = agent 0.1 μM, low-molecular agar-containing medium
[15] = agent 0.1 μM, negative control (DMEM, 10% FBS, attachment surface plate)

Structure (SMILES): NC1(c2ccc(-c3nc4ccn5c(=O)[nH]nc5c4cc3-c3ccccc3)cc2)CCC1 [MK2206]
- IC50 [1, 3]: 210 nM
- average cell number per sphere ([1]; agent 0.001 μM): 5.044
- average dead cell number in sphere ([1]; agent 0.001 μM): 0.104
- average sphere number per 20 mm^2 ([1]; agent 0.001 μM): 230.6
- projected area ([1]; agent 0.001 μM): 1361 μm^2
- average cell number per sphere ([1]; agent 0.01 μM): 4.774
- average dead cell number in sphere ([1]; agent 0.01 μM): 0.074
- average sphere number per 20 mm^2 ([1]; agent 0.01 μM): 213.7
- projected area ([1]; agent 0.01 μM): 1343 μm^2
- average cell number per sphere ([1]; agent 0.1 μM): 4.323
- average dead cell number in sphere ([1]; agent 0.1 μM): 0.076
- average sphere number per 20 mm^2 ([1]; agent 0.1 μM): 206.1
- projected area ([1]; agent 0.1 μM): 1199 μm^2
- average cell number per sphere ([1]; agent 1 μM): 3.423
- average dead cell number in sphere ([1]; agent 1 μM): 0.332
- average sphere number per 20 mm^2 ([1]; agent 1 μM): 142.3
- projected area ([1]; agent 1 μM): 931.2 μm^2
- IC50 [2, 4]: 210 nM
- IC50 [2, 5]: 250 nM
- IC50 [2, 6]: ≥ 1000 nM
- relative cell number (no anticancer agent = 100) [2, 7]: 95.8
- relative cell number (no anticancer agent = 100) [2, 8]: 100.1
- relative cell number (no anticancer agent = 100) [2, 9]: 100.2
- relative cell number (no anticancer agent = 100) [2, 10]: 89.1
- relative cell number (no anticancer agent = 100) [2, 11]: 93.9
- relative cell number (no anticancer agent = 100) [2, 12]: 101.3
- relative cell number (no anticancer agent = 100) [2, 13]: 61.8
- relative cell number (no anticancer agent = 100) [2, 14]: 66.5
- relative cell number (no anticancer agent = 100) [2, 15]: 97.6
- relative cell number (no anticancer agent = 100) ([2]; agent 1 μM, comparison control (0.015 (w/v)% deacylated gellan gum medium)): 25.2
- relative cell number (no anticancer agent = 100) ([2]; agent 1 μM, low-molecular agar-containing medium): 25.7
- relative cell number (no anticancer agent = 100) ([2]; agent 1 μM, negative control (DMEM, 10% FBS, attachment surface plate)): 95.7

Structure (SMILES): CO[C@@]12[C@H](COC(N)=O)C3=C(C(=O)C(C)=C(N)C3=O)N1C[C@@H]1N[C@@H]12 [mitomycin C]
- IC50 ([1]; A549, read-out: 50% inhibitory concentration): 6.4 nM
- average cell number per sphere ([1]; agent 0.005 μM): 3.72
- average dead cell number in sphere ([1]; agent 0.005 μM): 0.151
- average sphere number per 20 mm^2 ([1]; agent 0.005 μM): 265.2
- projected area ([1]; agent 0.005 μM): 1139 μm^2
- average cell number per sphere ([1]; agent 0.05 μM): 2.187
- average dead cell number in sphere ([1]; agent 0.05 μM): 0.33
- average sphere number per 20 mm^2 ([1]; agent 0.05 μM): 190.6
- projected area ([1]; agent 0.05 μM): 810.7 μm^2
- average cell number per sphere ([1]; agent 0.5 μM): 1.447
- average dead cell number in sphere ([1]; agent 0.5 μM): 0.606
- average sphere number per 20 mm^2 ([1]; agent 0.5 μM): 113.3
- projected area ([1]; agent 0.5 μM): 460.8 μm^2
- IC50 [2, 4]: 12.1 nM
- IC50 [2, 5]: 10 nM
- IC50 [2, 6]: 71.4 nM
- relative cell number (no anticancer agent = 100) ([2]; agent 0.005 μM, comparison control (0.015 (w/v)% deacylated gellan gum medium)): 62.8
- relative cell number (no anticancer agent = 100) ([2]; agent 0.005 μM, low-molecular agar-containing medium): 59.5
- relative cell number (no anticancer agent = 100) ([2]; agent 0.005 μM, negative control (DMEM, 10% FBS, attachment surface plate)): 94
- relative cell number (no anticancer agent = 100) ([2]; agent 0.05 μM, comparison control (0.015 (w/v)% deacylated gellan gum medium)): 29.5
- relative cell number (no anticancer agent = 100) ([2]; agent 0.05 μM, low-molecular agar-containing medium): 27.8
- relative cell number (no anticancer agent = 100) ([2]; agent 0.05 μM, negative control (DMEM, 10% FBS, attachment surface plate)): 55.9
- relative cell number (no anticancer agent = 100) ([2]; agent 0.5 μM, comparison control (0.015 (w/v)% deacylated gellan gum medium)): 8.6
- relative cell number (no anticancer agent = 100) ([2]; agent 0.5 μM, low-molecular agar-containing medium): 8.1
- relative cell number (no anticancer agent = 100) ([2]; agent 0.5 μM, negative control (DMEM, 10% FBS, attachment surface plate)): 12.3

Structure (SMILES): CC(=O)Nc1cccc(-n2c(=O)n(C3CC3)c(=O)c3c(Nc4ccc(I)cc4F)n(C)c(=O)c(C)c32)c1 [trametinib]
- IC50 [1, 3]: 5.1 nM
- average cell number per sphere ([1]; agent 0.001 μM): 4.272
- average dead cell number in sphere ([1]; agent 0.001 μM): 0.073
- average sphere number per 20 mm^2 ([1]; agent 0.001 μM): 218.7
- projected area ([1]; agent 0.001 μM): 1200 μm^2
- average cell number per sphere ([1]; agent 0.01 μM): 2.906
- average dead cell number in sphere ([1]; agent 0.01 μM): 0.09
- average sphere number per 20 mm^2 ([1]; agent 0.01 μM): 173.9
- projected area ([1]; agent 0.01 μM): 976.6 μm^2
- average cell number per sphere ([1]; agent 0.1 μM): 1.867
- average dead cell number in sphere ([1]; agent 0.1 μM): 0.178
- average sphere number per 20 mm^2 ([1]; agent 0.1 μM): 132.8
- projected area ([1]; agent 0.1 μM): 618.3 μm^2
- IC50 [2, 4]: 11.5 nM
- IC50 [2, 5]: 8.1 nM
- IC50 [2, 6]: 62.5 nM
- relative cell number (no anticancer agent = 100) [2, 7]: 93.3
- relative cell number (no anticancer agent = 100) [2, 8]: 92.2
- relative cell number (no anticancer agent = 100) [2, 9]: 101.2
- relative cell number (no anticancer agent = 100) [2, 10]: 52.5
- relative cell number (no anticancer agent = 100) [2, 11]: 45.8
- relative cell number (no anticancer agent = 100) [2, 12]: 99
- relative cell number (no anticancer agent = 100) [2, 13]: 18.1
- relative cell number (no anticancer agent = 100) [2, 14]: 18.2
- relative cell number (no anticancer agent = 100) [2, 15]: 37.4
